Experimental data published in PubChem BioAssay AID248 (DTP/NCI, 2004).
Where “and” joins values, the source holds several entries; their conditions need not be identical. Equal values may be shown once. Inconclusive results and toxic doses are left out. Cut-off read from the data, not from the text of the source: active = T/C of 150% or more; inactive = T/C below 125%.

Test system: L1210 leukemia ip in BDF1 mice, survival T/C
Assay: NCI In Vivo Anticancer Drug Screen. Data for tumor model L1210 Leukemia (intraperitoneal) in B6D2F1 (BDF1) mice
Details: higher = longer survival
Outline: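 Value reflects the ratio of survival in compound-treated mice to survival in vehicle-treated controls, with both groups carrying the same transplanted tumor.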

[1] = endpoint: mean survival time, dose: 100.0 mg/kg/injection, schedule: Q01DX001 (ip), vehicle: saline
[2] = endpoint: mean survival time, dose: 200.0 mg/kg/injection, schedule: Q01DX001 (ip), vehicle: saline
[3] = endpoint: mean survival time, dose: 400.0 mg/kg/injection, schedule: Q01DX001 (ip), vehicle: saline
[4] = endpoint: mean survival time, dose: 100.0 mg/kg/injection, schedule: Q04DX003 (ip), vehicle: saline
[5] = endpoint: mean survival time, dose: 100.0 mg/kg/injection, schedule: Q04DX002 (ip), vehicle: Klucel (hydroxypropylcellulose) (HPC)

Measured: T/C

Cc1nnc2nc3c(nn12)c1ccccc1n3C
inactive: endpoint: mean survival time, dose: 6.25 mg/kg/injection, schedule: Q04DX002 (ip), vehicle: saline 100 % of control | endpoint: mean survival time, dose: 12.5 mg/kg/injection, schedule: Q04DX002 (ip), vehicle: saline 103 % of control | endpoint: mean survival time, dose: 25.0 mg/kg/injection, schedule: Q04DX002 (ip), vehicle: saline 96 % of control

CC1(C)[C@H](C(=O)O)CC[C@]1(C)C(=O)O
inactive: endpoint: mean survival time, dose: 100.0 mg/kg/injection, schedule: Q01DX001 (ip), vehicle: other 103 % of control | endpoint: mean survival time, dose: 200.0 mg/kg/injection, schedule: Q01DX001 (ip), vehicle: other 103 % of control | endpoint: mean survival time, dose: 400.0 mg/kg/injection, schedule: Q01DX001 (ip), vehicle: other 105 % of control

CC(C)CCNNCCC(C)C
inactive: endpoint: mean survival time, dose: 75.0 mg/kg/injection, schedule: Q01DX001 (ip), vehicle: other 108 % of control | endpoint: mean survival time, dose: 150.0 mg/kg/injection, schedule: Q01DX001 (ip), vehicle: other 104 % of control

CCCCCCCCCC/C=N\N=C(N)N
inactive: endpoint: mean survival time, dose: 15.0 mg/kg/injection, schedule: Q01DX Z (ip), vehicle: other 107 % of control | endpoint: mean survival time, dose: 15.0 mg/kg/injection, schedule: Q01DX Z (oral), vehicle: carboxymethylcellulose (CMC) 96 % of control | endpoint: mean survival time, dose: 30.0 mg/kg/injection, schedule: Q01DX Z (ip), vehicle: other 97 % of control | endpoint: mean survival time, dose: 30.0 mg/kg/injection, schedule: Q01DX Z (oral), vehicle: carboxymethylcellulose (CMC) 103 % of control | endpoint: mean survival time, dose: 60.0 mg/kg/injection, schedule: Q01DX Z (oral), vehicle: carboxymethylcellulose (CMC) 96 % of control | endpoint: mean survival time, dose: 120.0 mg/kg/injection, schedule: Q01DX Z (oral), vehicle: carboxymethylcellulose (CMC) 103 % of control

COc1ccc(C(=O)c2ccc(Br)s2)cc1
inactive: endpoint: mean survival time, dose: 100.0 mg/kg/injection, schedule: Q01DX009 (ip), vehicle: Klucel (hydroxypropylcellulose) (HPC) 94 % of control | endpoint: mean survival time, dose: 100.0 mg/kg/injection, schedule: Q04DX003 (ip), vehicle: Klucel (hydroxypropylcellulose) (HPC) 97 % of control | endpoint: mean survival time, dose: 200.0 mg/kg/injection, schedule: Q01DX009 (ip), vehicle: Klucel (hydroxypropylcellulose) (HPC) 97 % of control | endpoint: mean survival time, dose: 200.0 mg/kg/injection, schedule: Q04DX003 (ip), vehicle: Klucel (hydroxypropylcellulose) (HPC) 97 % of control | endpoint: mean survival time, dose: 400.0 mg/kg/injection, schedule: Q01DX009 (ip), vehicle: Klucel (hydroxypropylcellulose) (HPC) 95 % of control | endpoint: mean survival time, dose: 400.0 mg/kg/injection, schedule: Q04DX003 (ip), vehicle: Klucel (hydroxypropylcellulose) (HPC) 96 % of control

O=C(Nc1ccc(Nc2ccccc2)cc1)c1ccc(F)cc1
inactive: endpoint: mean survival time, dose: 100.0 mg/kg/injection, schedule: Q01DX009 (ip), vehicle: gum acacia 91 % of control | endpoint: mean survival time, dose: 200.0 mg/kg/injection, schedule: Q01DX009 (ip), vehicle: gum acacia 96 % of control | endpoint: mean survival time, dose: 400.0 mg/kg/injection, schedule: Q01DX009 (ip), vehicle: gum acacia 94 % of control

COC1OC(CO)C2OC(C)(C)OC2C1O (configuration not stated)
inactive: endpoint: mean survival time, dose: 100.0 mg/kg/injection, schedule: Q04DX002 (ip), vehicle: saline 93 % of control | endpoint: mean survival time, dose: 200.0 mg/kg/injection, schedule: Q04DX002 (ip), vehicle: saline 101 % of control | endpoint: mean survival time, dose: 400.0 mg/kg/injection, schedule: Q04DX002 (ip), vehicle: saline 104 % of control

COc1nc2ccccc2n1C1OC(CO)C(O)C1O (configuration not stated)
inactive: [1] 97 % of control | [2] 100 % of control | [3] 105 % of control

COCCOC(=O)c1ccc(C(N)=NC2CCCCC2)cc1
inactive: [1] 96 % of control | [2] 97 % of control

CSc1ccc(NC(=O)Nc2c(C)n(C)n(-c3ccccc3)c2=O)cc1
inactive: [1] 89 % of control | endpoint: mean survival time, dose: 100.0 mg/kg/injection, schedule: Q01DX009 (ip), vehicle: saline with Tween-80 89 % of control | [4] 94 % of control | [2] 89 % of control | endpoint: mean survival time, dose: 200.0 mg/kg/injection, schedule: Q01DX009 (ip), vehicle: saline with Tween-80 89 % of control | endpoint: mean survival time, dose: 200.0 mg/kg/injection, schedule: Q04DX003 (ip), vehicle: saline 94 % of control | [3] 94 % of control | endpoint: mean survival time, dose: 400.0 mg/kg/injection, schedule: Q01DX009 (ip), vehicle: saline with Tween-80 86 % of control | endpoint: mean survival time, dose: 400.0 mg/kg/injection, schedule: Q04DX003 (ip), vehicle: saline 87 % of control

CC[C@@H](c1ccc(O)cc1)[C@@H](CC)c1ccc(O)cc1
inactive: endpoint: mean survival time, dose: 25.0 mg/kg/injection, schedule: Q01DX009 (sc), vehicle: steriod suspending solution 100 % of control and 108 % of control | endpoint: mean survival time, dose: 25.0 mg/kg/injection, schedule: Q01DX010 (sc), vehicle: steriod suspending solution 101 % of control | endpoint: mean survival time, dose: 50.0 mg/kg/injection, schedule: Q01DX009 (sc), vehicle: steriod suspending solution 96 % of control and 100 % of control | endpoint: mean survival time, dose: 50.0 mg/kg/injection, schedule: Q01DX010 (sc), vehicle: steriod suspending solution 95 % of control | endpoint: mean survival time, dose: 100.0 mg/kg/injection, schedule: Q01DX009 (sc), vehicle: steriod suspending solution 96 % of control and 102 % of control | endpoint: mean survival time, dose: 100.0 mg/kg/injection, schedule: Q01DX010 (sc), vehicle: steriod suspending solution 98 % of control | endpoint: mean survival time, dose: 125.0 mg/kg/injection, schedule: Q01DX Z (ip), vehicle: carboxymethylcellulose (CMC) 91 % of control | endpoint: mean survival time, dose: 200.0 mg/kg/injection, schedule: Q01DX009 (sc), vehicle: steriod suspending solution 93 % of control and 99 % of control | endpoint: mean survival time, dose: 200.0 mg/kg/injection, schedule: Q01DX010 (sc), vehicle: steriod suspending solution 95 % of control | endpoint: median survival time, dose: 25.0 mg/kg/injection, schedule: Q01DX009 (sc), vehicle: steriod suspending solution 100 % of control | endpoint: median survival time, dose: 50.0 mg/kg/injection, schedule: Q01DX009 (sc), vehicle: steriod suspending solution 100 % of control and 111 % of control | endpoint: median survival time, dose: 100.0 mg/kg/injection, schedule: Q01DX009 (sc), vehicle: steriod suspending solution 100 % of control and 111 % of control | endpoint: median survival time, dose: 200.0 mg/kg/injection, schedule: Q01DX009 (sc), vehicle: steriod suspending solution 100 % of control

CC(C)NC(=O)CCl
inactive: endpoint: mean survival time, dose: 25.0 mg/kg/injection, schedule: Q01DX009 (ip), vehicle: saline 96 % of control | endpoint: mean survival time, dose: 25.0 mg/kg/injection, schedule: Q04DX003 (ip), vehicle: saline 90 % of control | endpoint: mean survival time, dose: 50.0 mg/kg/injection, schedule: Q01DX009 (ip), vehicle: saline 91 % of control | endpoint: mean survival time, dose: 50.0 mg/kg/injection, schedule: Q04DX003 (ip), vehicle: saline 92 % of control | endpoint: mean survival time, dose: 100.0 mg/kg/injection, schedule: Q01DX009 (ip), vehicle: saline 98 % of control | [4] 102 % of control and 92 % of control

O=[N+]([O-])c1cc2cnn(CO)c2cc1[N+](=O)[O-]
inactive: [1] 95 % of control | [2] 95 % of control | [3] 100 % of control

CC(NC(=O)NC(C)(C)C)c1ccccc1 (configuration not stated)
inactive: [5] 102 % of control | endpoint: mean survival time, dose: 200.0 mg/kg/injection, schedule: Q04DX002 (ip), vehicle: Klucel (hydroxypropylcellulose) (HPC) 105 % of control | endpoint: mean survival time, dose: 400.0 mg/kg/injection, schedule: Q04DX002 (ip), vehicle: Klucel (hydroxypropylcellulose) (HPC) 121 % of control

FC1(F)SC2CCCC2C1(F)F (configuration not stated)
inactive: endpoint: mean survival time, dose: 3.13 mg/kg/injection, schedule: Q01DX009 (ip), vehicle: saline with Tween-80 95 % of control | endpoint: mean survival time, dose: 6.25 mg/kg/injection, schedule: Q01DX009 (ip), vehicle: saline with Tween-80 106 % of control | endpoint: mean survival time, dose: 12.5 mg/kg/injection, schedule: Q01DX009 (ip), vehicle: saline with Tween-80 95 % of control and 101 % of control | endpoint: mean survival time, dose: 12.5 mg/kg/injection, schedule: Q04DX003 (ip), vehicle: saline with Tween-80 101 % of control | endpoint: mean survival time, dose: 25.0 mg/kg/injection, schedule: Q04DX003 (ip), vehicle: saline with Tween-80 104 % of control | endpoint: mean survival time, dose: 50.0 mg/kg/injection, schedule: Q04DX003 (ip), vehicle: saline with Tween-80 95 % of control

CCOC(=O)Cc1ccc(CC(=O)OCC)cc1
inactive: endpoint: mean survival time, dose: 75.0 mg/kg/injection, schedule: Q04DX003 (ip), vehicle: saline 100 % of control | endpoint: mean survival time, dose: 150.0 mg/kg/injection, schedule: Q04DX003 (ip), vehicle: saline 105 % of control | endpoint: mean survival time, dose: 300.0 mg/kg/injection, schedule: Q04DX003 (ip), vehicle: saline 96 % of control

O=C1C2C3C=CC(CC3)C2S(=O)(=O)C2C3C=CC(CC3)C12 (configuration not stated)
inactive: endpoint: mean survival time, dose: 25.0 mg/kg/injection, schedule: Q04DX002 (ip), vehicle: gum acacia 96 % of control | endpoint: mean survival time, dose: 50.0 mg/kg/injection, schedule: Q04DX002 (ip), vehicle: gum acacia 104 % of control | endpoint: mean survival time, dose: 100.0 mg/kg/injection, schedule: Q04DX002 (ip), vehicle: gum acacia 100 % of control

CC1N=C(c2ccccc2)C2(c3ccccc3)C(C)N12 (configuration not stated)
inactive: endpoint: mean survival time, dose: 100.0 mg/kg/injection, schedule: Q01DX001 (ip), vehicle: Klucel (hydroxypropylcellulose) (HPC) 97 % of control | endpoint: mean survival time, dose: 200.0 mg/kg/injection, schedule: Q01DX001 (ip), vehicle: Klucel (hydroxypropylcellulose) (HPC) 94 % of control

c1cc2n(c1)Cc1cc3c(cc1NC2)OCO3
inactive: endpoint: mean survival time, dose: 25.0 mg/kg/injection, schedule: Q04DX002 (ip), vehicle: Klucel (hydroxypropylcellulose) (HPC) 90 % of control | endpoint: mean survival time, dose: 50.0 mg/kg/injection, schedule: Q04DX002 (ip), vehicle: Klucel (hydroxypropylcellulose) (HPC) 86 % of control | [5] 94 % of control
